Assay results taken from PubChem BioAssay AID1259407 (Chemical Carcinogenesis Research Information System (CCRIS), 2018).
Calls of active or inactive are those of the source. The rule behind the calls is not given here.

System: CCRIS mutagenicity, Ames/micronucleus/aberration tests
Test: CCRIS mutagenicity studies
[1] = Test System: AMES SALMONELLA TYPHIMURIUM, Strain/Indicator: TA98, Metabolic Activation: NONE, Method: PREINCUBATION
[2] = Test System: AMES SALMONELLA TYPHIMURIUM, Strain/Indicator: TA100, Metabolic Activation: NONE, Method: PREINCUBATION
[3] = Test System: AMES SALMONELLA TYPHIMURIUM, Strain/Indicator: TA100, Metabolic Activation: RAT, LIVER, S-9, PHENOBARBITAL AND 5,6-BENZOFLAVONE, Method: PREINCUBATION
[4] = Test System: AMES SALMONELLA TYPHIMURIUM, Strain/Indicator: TA98, Metabolic Activation: NONE, Method: STANDARD PLATE
[5] = Test System: AMES SALMONELLA TYPHIMURIUM, Strain/Indicator: TA100, Metabolic Activation: NONE, Method: STANDARD PLATE

Question: `CC1=CC(=O)C(C(C)C)=CC1=O` was tested. Which mutagenic call [1] did it give?
Answer: inactive; negative

Question: What about the mutagenic call (Test System: AMES SALMONELLA TYPHIMURIUM, Strain/Indicator: TA98, Metabolic Activation: RAT, LIVER, S-9, PHENOBARBITAL AND 5,6-BENZOFLAVONE, Method: PREINCUBATION) of the same compound?
Answer: inactive; negative

Question: And the mutagenic call [2]?
Answer: inactive; negative

Question: What about the mutagenic call [3] of the same compound?
Answer: inactive; negative

Question: And the mutagenic call (Test System: AMES SALMONELLA TYPHIMURIUM, Strain/Indicator: TA102, Metabolic Activation: NONE, Method: PREINCUBATION)?
Answer: inactive; negative

Question: And the mutagenic call (Test System: AMES SALMONELLA TYPHIMURIUM, Strain/Indicator: TA102, Metabolic Activation: RAT, LIVER, S-9, PHENOBARBITAL AND 5,6-BENZOFLAVONE, Method: PREINCUBATION)?
Answer: inactive; negative

Question: What about the mutagenic call (Test System: AMES SALMONELLA TYPHIMURIUM, Strain/Indicator: TA104, Metabolic Activation: RAT, LIVER, S-9, PHENOBARBITAL AND 5,6-BENZOFLAVONE, Method: PREINCUBATION) of the same compound?
Answer: inactive; negative

Question: And the mutagenic call (Test System: AMES SALMONELLA TYPHIMURIUM, Strain/Indicator: TA2637, Metabolic Activation: NONE, Method: PREINCUBATION)?
Answer: active; positive

Question: And the mutagenic call (Test System: AMES SALMONELLA TYPHIMURIUM, Strain/Indicator: TA2637, Metabolic Activation: RAT, LIVER, S-9, PHENOBARBITAL AND 5,6-BENZOFLAVONE, Method: PREINCUBATION)?
Answer: inactive; negative

Question: Which results are given for `CCNC(=O)NC(=O)/C(C#N)=N/OC`?
Answer: mutagenic call (End Point: In vitro chromosomal aberrations, Test System: Human lymphocytes, Metabolic Activation: None): active; positive (structural changes); mutagenic call (End Point: In vitro chromosomal aberrations, Test System: Human lymphocytes, Metabolic Activation: S-9 (DPR evaluator did not provide additional details)): active; positive (structural changes); mutagenic call (End Point: In vivo micronucleus, Test System: Bone marrow polychromatic erythrocytes, Species: Mouse, Strain/Sex: Female, Route: Oral (gavage)): inactive; negative, significant toxicity (m and f) and early deaths (f only) as high dose; mutagenic call (End Point: In vivo micronucleus, Test System: Bone marrow polychromatic erythrocytes, Species: Mouse, Strain/Sex: Male, Route: Oral (gavage)): inactive; negative, significant toxicity (m and f) and early deaths (f only) as high dose; mutagenic call (Test System: Ames Salmonella typhimurium, Strain/Indicator: TA97, Metabolic Activation: None, Method: Plate incorporation): inactive; negative, testing into the cytotoxic range.; mutagenic call (Test System: Ames Salmonella typhimurium, Strain/Indicator: TA97, Metabolic Activation: S-9 (DPR evaluator did not provide additional information), Method: Plate incorporation): inactive; negative, testing into the cytotoxic range.; mutagenic call (Test System: Ames Salmonella typhimurium, Strain/Indicator: TA98, Metabolic Activation: None, Method: Plate incorporation): inactive; negative, testing into the cytotoxic range.; mutagenic call (Test System: Ames Salmonella typhimurium, Strain/Indicator: TA98, Metabolic Activation: S-9 (DPR evaluator did not provide additional information), Method: Plate incorporation): inactive; negative, testing into the cytotoxic range.; mutagenic call (Test System: Ames Salmonella typhimurium, Strain/Indicator: TA100, Metabolic Activation: None, Method: Plate incorporation): inactive; negative, testing into the cytotoxic range.; mutagenic call (Test System: Ames Salmonella typhimurium, Strain/Indicator: TA100, Metabolic Activation: S-9 (DPR evaluator did not provide additional information), Method: Plate incorporation): inactive; negative, testing into the cytotoxic range.; mutagenic call (Test System: Ames Salmonella typhimurium, Strain/Indicator: TA1535, Metabolic Activation: None, Method: Plate incorporation): inactive; negative, testing into the cytotoxic range.; mutagenic call (Test System: Ames Salmonella typhimurium, Strain/Indicator: TA1535, Metabolic Activation: S-9 (DPR evaluator did not provide additional information), Method: Plate incorporation): inactive; negative, testing into the cytotoxic range.; mutagenic call (Test System: Chinese hamster ovary cells, Strain/Indicator: CHO Cells (HPRT) /6-Thioguanine, Metabolic Activation: None, Method: Preincubation): inactive; negative; mutagenic call (Test System: Chinese hamster ovary cells, Strain/Indicator: CHO Cells (HPRT)/6-Thioguanine, Metabolic Activation: S-9 (DPR evaluator did not provide additional information), Method: Preincubation): inactive; negative; mutagenic call (Test System: Male rat spermatocytes, Strain/Indicator: Thymidine incorporation, Metabolic Activation: None, Method: Autoradiography): inactive; negative, mortality and clinical signs of toxicity observed.; mutagenic call (Test System: UDS Male rat hepatocytes, Strain/Indicator: Thymidine incorporation, Metabolic Activation: None, Method: Autoradiography): inactive; negative, mortality and clinical signs of toxicity observed.; mutagenic call (Test System: UDS Rat hepatocytes, Strain/Indicator: Thymidine incorporation, Metabolic Activation: None, Method: Autoradiography): active; positive, statistically significant but no linear dose response.

Question: With `S=C1NCCN1` as the compound, how does the mutagenic call (Test System: AMES SALMONELLA TYPHIMURIUM, Strain/Indicator: TA98, Metabolic Activation: HAMSTER, LIVER, S-9, AROCLOR 1254 (10%), Method: PREINCUBATION) read?
Answer: inactive; negative

Question: And the mutagenic call [1]?
Answer: inactive; negative

Question: What about the mutagenic call [4] of the same compound?
Answer: inactive; negative

Question: What about the mutagenic call (Test System: AMES SALMONELLA TYPHIMURIUM, Strain/Indicator: TA98, Metabolic Activation: RAT, LIVER, S-9, AROCLOR 1254 (10%), Method: PREINCUBATION) of the same compound?
Answer: inactive; negative

Question: What about the mutagenic call (Test System: AMES SALMONELLA TYPHIMURIUM, Strain/Indicator: TA98, Metabolic Activation: RAT, LIVER, S-9, AROCLOR 1254, Method: STANDARD PLATE) of the same compound?
Answer: inactive; negative

Question: And the mutagenic call (Test System: AMES SALMONELLA TYPHIMURIUM, Strain/Indicator: TA100, Metabolic Activation: HAMSTER, LIVER, S-9, AROCLOR 1254 (10%), Method: PREINCUBATION)?
Answer: inactive; negative

Question: What about the mutagenic call [2] of the same compound?
Answer: inactive; negative

Question: What about the mutagenic call [5] of the same compound?
Answer: inactive; negative

Question: What about the mutagenic call (Test System: AMES SALMONELLA TYPHIMURIUM, Strain/Indicator: TA100, Metabolic Activation: RAT, LIVER, S-9, AROCLOR 1254 (10%), Method: PREINCUBATION) of the same compound?
Answer: inactive; negative

Question: What about the mutagenic call (Test System: AMES SALMONELLA TYPHIMURIUM, Strain/Indicator: TA100, Metabolic Activation: RAT, LIVER, S-9, AROCLOR 1254, Method: STANDARD PLATE) of the same compound?
Answer: inactive; negative

Question: And the mutagenic call (Test System: AMES SALMONELLA TYPHIMURIUM, Strain/Indicator: TA102, Metabolic Activation: NONE, Method: STANDARD PLATE)?
Answer: inactive; negative

Question: And the mutagenic call (Test System: AMES SALMONELLA TYPHIMURIUM, Strain/Indicator: TA102, Metabolic Activation: RAT, LIVER, S-9, AROCLOR 1254, Method: STANDARD PLATE)?
Answer: inactive; negative

Question: And the mutagenic call (Test System: AMES SALMONELLA TYPHIMURIUM, Strain/Indicator: TA104, Metabolic Activation: NONE, Method: STANDARD PLATE)?
Answer: inactive; negative

Question: What about the mutagenic call (Test System: AMES SALMONELLA TYPHIMURIUM, Strain/Indicator: TA104, Metabolic Activation: RAT, LIVER, S-9, AROCLOR 1254, Method: STANDARD PLATE) of the same compound?
Answer: inactive; negative

Question: What about the mutagenic call (Test System: AMES SALMONELLA TYPHIMURIUM, Strain/Indicator: TA1535, Metabolic Activation: NONE, Method: STANDARD PLATE) of the same compound?
Answer: active; positive

Question: And the mutagenic call (Test System: AMES SALMONELLA TYPHIMURIUM, Strain/Indicator: TA1535, Metabolic Activation: S-9 MIX, Method: STANDARD PLATE)?
Answer: active; positive

Question: And the mutagenic call (Test System: AMES SALMONELLA TYPHIMURIUM, Strain/Indicator: TA1537, Metabolic Activation: HAMSTER, LIVER, S-9, AROCLOR 1254 (10%), Method: PREINCUBATION)?
Answer: inactive; negative

Question: What about the mutagenic call (Test System: AMES SALMONELLA TYPHIMURIUM, Strain/Indicator: TA1537, Metabolic Activation: NONE, Method: PREINCUBATION) of the same compound?
Answer: inactive; negative

Question: What about the mutagenic call (Test System: AMES SALMONELLA TYPHIMURIUM, Strain/Indicator: TA1537, Metabolic Activation: RAT, LIVER, S-9, AROCLOR 1254 (10%), Method: PREINCUBATION) of the same compound?
Answer: inactive; negative

Question: What about the mutagenic call (Test System: MOUSE LYMPHOMA, Strain/Indicator: L5178Y (TK+/TK-), Metabolic Activation: NONE, Method: SUSPENSION/PLATE) of the same compound?
Answer: inactive; negative

Question: What about the mutagenic call (Test System: MOUSE LYMPHOMA, Strain/Indicator: L5178Y (TK+/TK-), Metabolic Activation: RAT, LIVER, S-9, AROCLOR 1254, Method: SUSPENSION/PLATE) of the same compound?
Answer: active; positive

Question: Which mutagenic call [4] does the source give for `Clc1ccccc1-c1nc2ccccc2o1` here?
Answer: inactive; negative

Question: And the mutagenic call (Test System: AMES SALMONELLA TYPHIMURIUM, Strain/Indicator: TA98, Metabolic Activation: S-9, Method: STANDARD PLATE)?
Answer: inactive; negative

Question: Which mutagenic call (Test System: CHINESE HAMSTER V-79, Strain/Indicator: V-79/8-AZAGUANINE, Metabolic Activation: NONE) does the source give for `COc1cccc2c1C(=O)c1c(O)c3c(c(O)c1C2=O)CC(O)(C(C)=O)CC3O[C@H]1C[C@H](N2CCOCC2)[C@@H](O)C(C)O1` (some centres not stated) here?
Answer: active; positive

Question: What about the mutagenic call (Test System: CHINESE HAMSTER V-79, Strain/Indicator: V-79/8-AZAGUANINE, Metabolic Activation: RAT, HEPATOCYTES) of the same compound?
Answer: inactive; negative

Question: And the mutagenic call (Test System: UDS RAT HEPATOCYTES, Strain/Indicator: THY INCORP, Metabolic Activation: NONE, Method: AUTOMATIC COLONY COUNTER)?
Answer: active; positive

Question: Which results are given for `CO[C@]1(CC[C@@H](C)CO[C@@H]2O[C@H](CO)[C@@H](O)[C@H](O)[C@H]2O)O[C@H]2C[C@H]3[C@@H]4CC=C5C[C@@H](O[C@@H]6O[C@H](CO)[C@@H](O[C@@H]7O[C@@H](C)[C@H](O)[C@@H](O)[C@H]7O)[C@H](O)C6O[C@@H]6O[C@@H](C)[C@H](O)[C@@H](O)[C@H]6O)CC[C@]5(C)[C@H]4CC[C@]3(C)[C@H]2[C@@H]1C` (some centres not stated)?
Answer: mutagenic call [4]: inactive; negative; mutagenic call (Test System: AMES SALMONELLA TYPHIMURIUM, Strain/Indicator: TA98, Metabolic Activation: RAT, LIVER, S-9, PHENOBARBITAL, Method: STANDARD PLATE): inactive; negative; mutagenic call [5]: inactive; negative; mutagenic call (Test System: AMES SALMONELLA TYPHIMURIUM, Strain/Indicator: TA100, Metabolic Activation: RAT, LIVER, S-9, PHENOBARBITAL, Method: STANDARD PLATE): inactive; negative

Question: For `Fc1cc2ccccc2c2ncccc12`, which mutagenic call [3] is on record?
Answer: active; positive
